Test results from US10730874B2 (Shire Human Genetic Therapies, Inc., priority 2018, dated 2020).

Molecular target: human activated kallikrein enzyme (plasma kallikrein) (Homo sapiens (Human), UniProt P03952)
Assay: Inhibition of human activated plasma kallikrein, fluorogenic peptide substrate assay, 500 pM enzyme format
Assay type: biochemical
Conditions: 500 pM activated kallikrein enzyme, 300 uM Pro-Phe-Arg-7-amido-4-methylcoumarin substrate, 30 min preincubation, 10 min at RT; read-out: Primary Dose Response Assay: Average EC50
Summary of the method: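 Buffer 20 mM Tris pH 7.5, EDTA, NaCl, PEG-400, Triton X-100; 300 uM Pro-Phe-Arg-AMC; enzyme–inhibitor preincubation 30 min RT. Format one: 500 pM kallikrein, 10 min RT reaction; format two: 5 pM kallikrein, 18 h RT reaction. Fluorescence read at 460 nm (380 nm excitation).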

Chain of human activated kallikrein enzyme (plasma kallikrein) (P03952 391-638): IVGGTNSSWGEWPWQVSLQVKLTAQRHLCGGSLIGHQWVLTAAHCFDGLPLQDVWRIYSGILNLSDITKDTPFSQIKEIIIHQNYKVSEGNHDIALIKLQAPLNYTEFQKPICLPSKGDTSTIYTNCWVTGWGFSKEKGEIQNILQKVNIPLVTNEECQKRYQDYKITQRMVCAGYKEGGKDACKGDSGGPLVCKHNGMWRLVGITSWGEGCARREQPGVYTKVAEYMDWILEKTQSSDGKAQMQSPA
Chain of human activated kallikrein enzyme (plasma kallikrein) (P03952 20-390 partner): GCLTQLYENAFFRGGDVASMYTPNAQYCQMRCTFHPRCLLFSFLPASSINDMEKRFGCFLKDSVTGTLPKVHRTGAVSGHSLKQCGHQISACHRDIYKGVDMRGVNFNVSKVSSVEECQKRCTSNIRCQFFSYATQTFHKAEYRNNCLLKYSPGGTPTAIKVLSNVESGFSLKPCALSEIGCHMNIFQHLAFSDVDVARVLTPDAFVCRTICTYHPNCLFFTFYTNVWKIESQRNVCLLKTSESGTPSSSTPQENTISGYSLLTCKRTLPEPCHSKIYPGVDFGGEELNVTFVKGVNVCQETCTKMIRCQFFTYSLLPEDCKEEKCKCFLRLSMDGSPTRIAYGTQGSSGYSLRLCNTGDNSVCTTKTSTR

For `O=C(NCc1ncn2ccc(Cl)cc12)c1cn(Cc2cn3cc(C4CC4)cc(CCc4nnn[nH]4)c3n2)nn1` [Example I-194, 1-((8-(2-(1H-tetrazol-5-yl)ethyl)-6-cyclopropylimidazo[1,2-a]pyridin-2-yl)methyl)-N-((7-chloroimidazo[1,5-a]pyridin-1-yl)methyl)-1H-1,2,3-triazole-4-carboxamide], the EC50 was under 1 nM.

`C/C=C\c1ccc2nc(Cn3cc(C(=O)NCc4ncn5ccc(Cl)cc45)cn3)cn2c1` [Example I-47, (Z)—N-((7-chloroimidazo[1,5-a]pyridin-1-yl)methyl)-1-((6-(prop-1-en-1-yl)imidazo[1,2-a]pyridin-2-yl)methyl)-1H-pyrazole-4-carboxamide] showed an EC50 of 1 to 10 nM.

In the case of `O=C(NCc1ncn2ccc(Br)cc12)c1cnn(Cc2cc3cc(C4CC4)ccn3n2)c1` [Example I-56, N-((7-bromoimidazo[1,5-a]pyridin-1-yl)methyl)-1-((5-cyclopropylpyrazolo[1,5-a]pyridin-2-yl)methyl)-1H-pyrazole-4-carboxamide], the EC50 is reported as 1 to 10 nM.

Work on `O=C(NCc1ncn2ccc(Cl)cc12)c1cnn(Cc2cn3cc(C4CC4)cnc3n2)c1` [Example I-129, N-((7-chloroimidazo[1,5-a]pyridin-1-yl)methyl)-1-((6-cyclopropylimidazo[1,2-a]pyrimidin-2-yl)methyl)-1H-pyrazole-4-carboxamide] yielded an EC50 of under 1 nM.

In the case of `CCOC(=O)c1nncn1-c1cc(C2CC2)cn2cc(Cn3cc(C(=O)NCc4ncn5ccc(Cl)c(F)c45)nn3)nc12` [Example I-248, ethyl 4-(2-((4-(((7-chloro-8-fluoroimidazo[1,5-a]pyridin-1-yl)methyl)carbamoyl)-1H-1,2,3-triazol-1-yl)methyl)-6-cyclopropylimidazo[1,2-a]pyridin-8-yl)-4H-1,2,4-triazole-3-carboxylate], the EC50 is reported as under 1 nM.

Compound `O=C(NCc1ncn2ccc(Cl)c(F)c12)c1cn(Cc2cn3cc(C4CC4)cc(N4CC5(COC5)C4)c3n2)nn1` [Example I-250, N-((7-chloro-8-fluoroimidazo[1,5-a]pyridin-1-yl)methyl)-1-((6-cyclopropyl-8-(2-oxa-6-azaspiro[3.3]heptan-6-yl)imidazo[1,2-a]pyridin-2-yl)methyl)-1H-1,2,3-triazole-4-carboxamide] has an EC50 of under 1 nM.

`CCOC(=O)C(C)Cc1cc(C2CC2)cn2cc(Cn3cc(C(=O)NCc4ncn5ccc(Cl)c(F)c45)nn3)nc12` (centres unmarked) [Example I-245a, ethyl 3-(2-((4-(((7-chloro-8-fluoroimidazo[1,5-a]pyridin-1-yl)methyl)carbamoyl)-1H-1,2,3-triazol-1-yl)methyl)-6-cyclopropylimidazo[1,2-a]pyridin-8-yl)-2-methylpropanoate] was tested, and the EC50 was under 1 nM.

For `CC(NC(=O)c1cn(C(C)c2cn3cc(C4CC4)ccc3n2)nn1)c1ncn2ccc(Cl)c(F)c12` (centres unmarked) [Example I-278, N-(1-(7-chloro-8-fluoroimidazo[1,5-a]pyridin-1-yl)ethyl)-1-(1-(6-cyclopropylimidazo[1,2-a]pyridin-2-yl)ethyl)-1H-1,2,3-triazole-4-carboxamide], the EC50 was 100 to 2000 nM.

For `O=C(NCc1ncn2ccc(Br)cc12)c1cnn(Cc2cn3nc(C4CC4)ccc3n2)c1` [Example I-68, N-((7-bromoimidazo[1,5-a]pyridin-1-yl)methyl)-1-((6-cyclopropylimidazo[1,2-b]pyridazin-2-yl)methyl)-1H-pyrazole-4-carboxamide], the EC50 was under 1 nM.

With `C#Cc1ccn2cnc(CNC(=O)c3cnn(Cc4cn5nc(C6CC6)ccc5n4)c3)c2c1` [Example I-98, 1-((6-cyclopropylimidazo[1,2-b]pyridazin-2-yl)methyl)-N-((7-ethynylimidazo[1,5-a]pyridin-1-yl)methyl)-1H-pyrazole-4-carboxamide] the EC50 was under 1 nM.

Work on `O=C(NCc1ncn2ccc(Cl)cc12)c1cc(Cc2cn3cc(C4CC4)ccc3n2)on1` [Example I-176, N-((7-chloroimidazo[1,5-a]pyridin-1-yl)methyl)-5-((6-cyclopropylimidazo[1,2-a]pyridin-2-yl)methyl)isoxazole-3-carboxamide] yielded an EC50 of 1 to 10 nM.

`COC(=O)c1ccc(-n2c(Cn3cc(C(=O)NCc4ncn5ccc(Cl)c(F)c45)nn3)cc3cc(C4CC4)ccc32)cc1` [Example I-254, methyl 4-(2-((4-(((7-chloro-8-fluoroimidazo[1,5-a]pyridin-1-yl)methyl)carbamoyl)-1H-1,2,3-triazol-1-yl)methyl)-5-cyclopropyl-1H-indol-1-yl)benzoate] showed an EC50 of 1 to 10 nM.

Compound `O=C(NCc1ncn2ccc(Cl)cc12)c1cnn(Cc2cn3cc(C4CC4)cc(C4COC4)c3n2)c1` [Example I-132, N-((7-chloroimidazo[1,5-a]pyridin-1-yl)methyl)-1-((6-cyclopropyl-8-(oxetan-3-yl)imidazo[1,2-a]pyridin-2-yl)methyl)-1H-pyrazole-4-carboxamide] has an EC50 of under 1 nM.

`O=C(NCc1ncn2ccc(Cl)cc12)c1cnn(Cc2cn3cc(C4CC4)cc(C(O)C4COC4)c3n2)c1` (centres unmarked) [Example I-141, N-((7-chloroimidazo[1,5-a]pyridin-1-yl)methyl)-1-((6-cyclopropyl-8-(hydroxy(oxetan-3-yl)methyl)imidazo[1,2-a]pyridin-2-yl)methyl)-1H-pyrazole-4-carboxamide] showed an EC50 of under 1 nM.

`O=C(NCc1ncn2ccc(Cl)c(F)c12)c1cn(Cc2cn3cc(C4CC4)cc(-c4nn[nH]n4)c3n2)nn1` [Example I-174, N-((7-chloro-8-fluoroimidazo[1,5-a]pyridin-1-yl)methyl)-1-((6-cyclopropyl-8-(2H-tetrazol-5-yl)imidazo[1,2-a]pyridin-2-yl)methyl)-1H-1,2,3-triazole-4-carboxamide] was tested, and the EC50 was under 1 nM.

In the case of `O=C(NCc1ncn2ccc(Cl)cc12)c1cnn(Cc2cn3cc(C(F)(F)F)ccc3n2)c1` [Example I-18, N-((7-chloroimidazo[1,5-a]pyridin-1-yl)methyl)-1-((6-(trifluoromethyl)imidazo[1,2-a]pyridin-2-yl)methyl)-1H-pyrazole-4-carboxamide], the EC50 is reported as 1 to 10 nM.

For `O=C(NCc1ncn2ccc(Br)cc12)c1cnn(Cc2cn3cc(C4CC4)c(Cl)cc3n2)c1` [Example I-25, N-((7-bromoimidazo[1,5-a]pyridin-1-yl)methyl)-1-((7-chloro-6-cyclopropylimidazo[1,2-a]pyridin-2-yl)methyl)-1H-pyrazole-4-carboxamide], the EC50 was 1 to 10 nM.

`O=C(NCc1ncn2ccc(Cl)c(F)c12)c1cn(Cc2nc3ccc(C4CC4)cn3c2F)nn1` [Example I-240, N-((7-chloro-8-fluoroimidazo[1,5-a]pyridin-1-yl)methyl)-1-((6-cyclopropyl-3-fluoroimidazo[1,2-a]pyridin-2-yl)methyl)-1H-1,2,3-triazole-4-carboxamide] showed an EC50 of under 1 nM.

Work on `O=C(NCc1ncn2ccc(Cl)c(F)c12)c1cn(Cc2cn3cc(C4CC4)cc(N4CCOCC4)c3n2)nn1` [Example I-173, N-((7-chloro-8-fluoroimidazo[1,5-a]pyridin-1-yl)methyl)-1-((6-cyclopropyl-8-morpholinoimidazo[1,2-a]pyridin-2-yl)methyl)-1H-1,2,3-triazole-4-carboxamide] yielded an EC50 of under 1 nM.

Work on `O=C(NCc1ncn2ccc(Br)cc12)c1cnn(Cc2cn3cc(Br)c(Cl)cc3n2)c1` [Example I-37, 1-((6-bromo-7-chloroimidazo[1,2-a]pyridin-2-yl)methyl)-N-((7-bromoimidazo[1,5-a]pyridin-1-yl)methyl)-1H-pyrazole-4-carboxamide] yielded an EC50 of 10 to 100 nM.
